The values that follow come from patent publication US9029389B2 (Institut Pasteur Korea, priority 2011, dated 2015).

In one data set the target is T1, Human 5-lipoxygenase (Homo sapiens, UniProt P09917).
T1 construct: purchased Cayman 60402; host or cells: insect cells
T1 sequence (P09917 1-674): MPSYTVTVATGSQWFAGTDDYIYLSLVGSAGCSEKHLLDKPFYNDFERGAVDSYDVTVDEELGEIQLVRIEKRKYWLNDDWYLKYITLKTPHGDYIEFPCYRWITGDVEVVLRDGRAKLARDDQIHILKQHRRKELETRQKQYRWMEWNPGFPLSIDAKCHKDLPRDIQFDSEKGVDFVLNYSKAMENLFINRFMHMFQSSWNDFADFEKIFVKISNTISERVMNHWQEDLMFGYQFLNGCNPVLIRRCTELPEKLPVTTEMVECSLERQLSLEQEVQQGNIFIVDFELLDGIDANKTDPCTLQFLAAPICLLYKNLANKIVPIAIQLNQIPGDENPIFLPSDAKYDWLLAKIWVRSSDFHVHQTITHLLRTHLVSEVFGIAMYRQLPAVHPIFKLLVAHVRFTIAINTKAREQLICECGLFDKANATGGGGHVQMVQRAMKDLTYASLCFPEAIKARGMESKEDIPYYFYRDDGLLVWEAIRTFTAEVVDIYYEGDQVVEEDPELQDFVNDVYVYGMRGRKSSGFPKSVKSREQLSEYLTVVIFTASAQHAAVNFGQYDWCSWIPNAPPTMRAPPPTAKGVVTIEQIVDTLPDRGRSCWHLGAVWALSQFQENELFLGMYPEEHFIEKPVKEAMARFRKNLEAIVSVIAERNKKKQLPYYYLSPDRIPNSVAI
In words: Activity of compounds against 5-LO enzyme (LTB4 measurement and/or fluorescence method). Type of data set: biochemical. The following applies: for inhibition at 10 µM: 5-LO, single concentration of 10 uM in duplicate; for IC50: 6 or 11 point dose response in duplicate. An outline of the steps: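 Two read-outs: LTB4 measured by EIA and/or LC/MS/MS with LTB4-d4 standard after 15 min RT compound preincubation with insect-cell 5-LO and a 5 min 37 °C reaction on 3 uM arachidonic acid (0.1 mM ATP, pH 7.4). The room-temperature fluorescence format used 20 uM H2DCFDA, 100 uM ATP, 3 uM arachidonic acid, 5 min; IC50 from 6/11-point curves.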

In the case of `CCc1nc2ccc(Cl)cn2c1C(=O)NCc1ccc(C2CCOCC2)cc1` [compound 363, 6-chloro-2-ethyl-N-(4-(tetrahydro-2H-pyran-4-yl)benzyl)imidazo[1,2-a]pyridine-3-carboxamide], the melting point – broadly, the temperature of the solid-liquid transition – was > 195.5 °C (dec.). At Human 5-lipoxygenase, the inhibition (commonly the drop in the measured response relative to a control, in per cent) at 10 µM was less than 40%.
For `CCc1nc2cc(Cl)ccn2c1C(=O)NCc1ccc(C2CCOCC2)cc1` [compound 364, 7-chloro-2-ethyl-N-(4-(tetrahydro-2H-pyran-4-yl)benzyl)imidazo[1,2-a]pyridine-3-carboxamide], in that order: > 156.6 °C (dec.) and less than 40%.
Taken in the same sequence, the figures for `CCc1nc2ccc(Cl)cn2c1C(=O)NCc1cc2cc(Cl)ccc2o1` [compound 366, 6-chloro-N-((5-chlorobenzofuran-2-yl)methyl)-2-ethylimidazo[1,2-a]pyridine-3-carboxamide] were 223.5 to 225.6 °C and less than 40%.
The compound `CCc1nc2ccc(Cl)cn2c1C(=O)NCc1nc2ccc(Cl)cc2n1C` [compound 367, 6-chloro-N-((6-chloro-1-methyl-1H-benzo[d]imidazol-2-yl)methyl)-2-ethylimidazo[1,2-a]pyridine-3-carboxamide] had a melting point greater than 220 °C. Also, the inhibition at 10 µM against Human 5-lipoxygenase is less than 40%.
Taken in the same sequence, the figures for `CCc1nc2ccc(Cl)cn2c1C(=O)NCc1nc2cc(Cl)ccc2n1C` [compound 368, 6-chloro-N-((5-chloro-1-methyl-1H-benzo[d]imidazol-2-yl)methyl)-2-ethylimidazo[1,2-a]pyridine-3-carboxamide] were greater than 220 °C and less than 40%.
Taken in the same sequence, the figures for `CCc1nc2ccc(Cl)cn2c1C(=O)NCc1nc2ccc(Cl)cc2o1` [compound 369, 6-chloro-N-((6-chlorobenzo[d]oxazol-2-yl)methyl)-2-ethylimidazo[1,2-a]pyridine-3-carboxamide] were 201.1 to 201.8 °C and less than 40%.
Taken in the same sequence, the figures for `CCc1nc2cc(Cl)ccn2c1C(=O)NCc1nc2cc(-c3ccc(OC(F)(F)F)cc3)ccc2o1` [compound 370, 7-chloro-2-ethyl-N-((5-(4-(trifluoromethoxy)phenyl)benzo[d]oxazol-2-yl)methyl)imidazo[1,2-a]pyridine-3-carboxamide] were greater than 220 °C and less than 40%.
As for `CCc1nc2ccc(Cl)cn2c1C(=O)NCc1nc2ccc(Cl)cc2s1` [compound 371, 6-chloro-N-((6-chlorobenzo[d]thiazol-2-yl)methyl)-2-ethylimidazo[1,2-a]pyridine-3-carboxamide], the melting point is greater than 220 °C. Also, on Human 5-lipoxygenase, the inhibition at 10 µM was less than 40%.
For `CCc1nc2ccc(F)cn2c1C(=O)NCc1ccc(N2CCC(c3ccc(OC(F)(F)F)cc3)CC2)cc1` [compound 372, 2-ethyl-6-fluoro-N-(4-(4-(4-(trifluoromethoxy)phenyl)piperidin-1-yl)benzyl)imidazo[1,2-a]pyridine-3-carboxamide], in that order: > 167.9 °C (dec.) and less than 40%.
Take `CCc1nc2c(F)cccn2c1C(=O)NCc1ccc(N2CCC(c3ccc(OC(F)(F)F)cc3)CC2)cc1` [compound 373, 2-ethyl-8-fluoro-N-(4-(4-(4-(trifluoromethoxy)phenyl)piperidin-1-yl)benzyl)imidazo[1,2-a]pyridine-3-carboxamide]: the melting point is > 177.7 °C (dec.). The inhibition at 10 µM at Human 5-lipoxygenase lay in the range of 40 to 69%.
With `CCc1nc2cc(Cl)ccn2c1C(=O)NCc1nc2ccc(-c3ccc(OC(F)(F)F)cc3)cc2o1` [compound 374, 7-chloro-2-ethyl-N-((6-(4-(trifluoromethoxy)phenyl)benzo[d]oxazol-2-yl)methyl)imidazo[1,2-a]pyridine-3-carboxamide], the melting point is greater than 220 °C. This compound displayed an inhibition at 10 µM at Human 5-lipoxygenase of less than 40%.
Consider `CCc1nc2cc(Cl)ccn2c1C(=O)NCc1ccc(N2CC(Cc3ccc(F)cc3)OC2=O)cc1` (centres unmarked) [compound 377, 7-chloro-2-ethyl-N-(4-(5-(4-fluorobenzyl)-2-oxooxazolidin-3-yl)benzyl)imidazo[1,2-a]pyridine-3-carboxamide], for which the melting point is > 96.9 °C (dec.). At Human 5-lipoxygenase, the inhibition at 10 µM is less than 40%.
Taken in the same sequence, the figures for `CCc1nc2cc(Cl)ccn2c1C(=O)NCc1ccc(N2CC(COc3ccc(F)cc3)OC2=O)cc1` (centres unmarked) [compound 378, 7-chloro-2-ethyl-N-(4-(5-((4-fluorophenoxy)methyl)-2-oxooxazolidin-3-yl)benzyl)imidazo[1,2-a]pyridine-3-carboxamide] were greater than 97.1 °C and less than 40%.
For `CCc1nc2ccc(Cl)cn2c1CNc1ccc(Oc2ccc(F)cc2)cc1` [compound 379, N-((6-Chloro-2-ethylimidazo[1,2-a]pyridin-3-yl)methyl)-4-(4-fluorophenoxy)aniline], the melting point fell in the range of 148.6 to 148.8 °C. Besides, on Human 5-lipoxygenase, the concentration for half-maximal inhibition (IC50) – broadly, the midpoint of a concentration-inhibition curve – was in the range of 1000 to 20000 nM.
Taken in the same sequence, the figures for `CCc1nc2ccc(Cl)cn2c1CNc1ccc(-c2ccc(OC(F)(F)F)cc2)cc1` [compound 383, N-((6-chloro-2-ethylimidazo[1,2-a]pyridin-3-yl)methyl)-4′-(trifluoromethoxy)biphenyl-4-amine] were 102 °C and greater than 20000 nM.
As to `CCc1nc2ccc(Cl)cn2c1C(=O)N1CCC(Oc2ccc(OC(F)(F)F)cc2)CC1` [compound 384, (6-Chloro-2-ethylimidazo[1,2-a]pyridin-3-yl)(4-(4-(trifluoromethoxy)phenoxy)piperidin-1-yl)methanone], the melting point turned out to be 80.7 °C. On Human 5-lipoxygenase, this compound registered an IC50 of 1000 to 20000 nM.
In turn, `CCc1nc2ncccn2c1C(=O)NCc1ccc(-c2ccc(Cl)cc2)cc1` [compound 386, N-((4′-Chloro-[1,1′-biphenyl]-4-yl)methyl)-2-ethylimidazo[1,2-a]pyrimidine-3-carboxamide] came in with a melting point of 184.8 °C. Besides, at Human 5-lipoxygenase, the IC50 was in the range of 1000 to 20000 nM.
For `CCc1nc2ccc(Cl)cn2c1CNc1ccc(N2CCC(c3ccc(Cl)cc3)CC2)cc1` [compound 392, N-((6-chloro-2-ethylimidazo[1,2-a]pyridin-3-yl)methyl)-4-(4-(4-chlorophenyl)piperidin-1-yl)aniline], the melting point came out at 159.5 °C. Further, the half-inhibitory concentration (IC50) at Human 5-lipoxygenase is 1000 to 20000 nM.
Taken in the same sequence, the figures for `CCc1nc2ncccn2c1CNc1ccc(N2CCN(c3ccc(F)cc3)CC2)cc1` [compound 395, N-((2-Ethylimidazo[1,2-a]pyrimidin-3-yl)methyl)-4-(4-(4-fluorophenyl)piperazin-1-yl)aniline] were 210.7 °C and less than 1000 nM.
For `CCc1nc2cccnn2c1CNc1ccc(N2CCN(c3ccc(F)cc3)CC2)cc1` [compound 396, N-((2-Ethylimidazo[1,2-b]pyridazin-3-yl)methyl)-4-(4-(4-fluorophenyl)piperazin-1-yl)aniline], in that order: 192.7 °C and less than 1000 nM.
For `CCc1nc2ccc(Cl)cn2c1COc1ccc(N2CCN(c3ccc(F)cc3)CC2)cc1` [compound 399, 6-chloro-2-ethyl-3-((4-(4-(4-fluorophenyl)piperazin-1-yl)phenoxy)methyl)imidazo[1,2-a]pyridine], in that order: 161.3 °C and less than 1000 nM.
`CCc1nc2cc(Cl)ccn2c1COc1ccc(N2CCN(c3ccc(F)cc3)CC2)cc1` [compound 400, 7-chloro-2-ethyl-3-((4-(4-(4-fluorophenyl)piperazin-1-yl)phenoxy)methyl)imidazo[1,2-a]pyridine] returned a melting point of 167.5 °C. The compound further came in with an IC50 against Human 5-lipoxygenase of less than 1000 nM.
Taken in the same sequence, the figures for `Cc1nc2cccc(C)n2c1CNc1ccc(N2CCC(c3ccc(F)cc3)CC2)cc1` [compound 401, N-((2,5-dimethylimidazo[1,2-a]pyridin-3-yl)methyl)-4-(4-(4-fluorophenyl)piperidin-1-yl)aniline] were 228.8 °C and less than 1000 nM.
Taken in the same sequence, the figures for `Cc1nc2cccc(C)n2c1CNc1ccc(N2CCN(c3ccc(F)cc3)CC2)cc1` [compound 402, N-((2,5-dimethylimidazo[1,2-a]pyridin-3-yl)methyl)-4-(4-(4-fluorophenyl)piperazin-1-yl)aniline] were 196.4 °C and less than 1000 nM.
For `CCc1nc2ccc(F)cn2c1C(=O)NC1CCN(c2ccc(Nc3ccccc3)cc2)C1` (centres unmarked) [compound 403, 2-Ethyl-6-fluoro-N-(1-(4-(phenylamino)phenyl)pyrrolidin-3-yl)imidazo[1,2-a]pyridine-3-carboxamide], in that order: 224.7 °C and less than 1000 nM.
